Reference: patent US20030176314A1, “Compounds for the treatment of pain” (priority 2001, published 2003)
pEC50, pKi: −log10 of the molar value. Read-outs that look alike come from different tables or passages of the source.

What was measured:
[1] = target: T1, rat NPFF1 receptor (Rattus norvegicus, UniProt Q9EP86); assay: Competition binding at cloned rat NPFF1 receptor ([125I]1DMeNPFF displacement)
T1 construct: expressed in transfected cells; host or cells: not given
Protocol: Transfected cells from culture flasks are scraped into 5 ml of 20 mM Tris-HCl, 5 mM EDTA, pH 7.5, and lysed by sonication. The cell lysates are centrifuged at 1000 rpm for 5 min. at 4° C., and the supernatant is centrifuged at 30,000×g for 20 min. at 4° C. […] Optimal membrane suspension dilutions, defined as the protein concentration required to bind less than 10% of the added radioligand, are […], unlabeled compounds, and binding buffer to a final volume of 250 μl. […]
(§1) Competition assay: 50 pM radioligand, 10-12 points. Binding reaction mixtures are incubated for 2 hr at 25° C., and the reaction stopped by filtration through a double layer of GF filters treated with 0.1% polyethyleneimine, using a cell harvester. Wash buffer: 50 mM Tris-HCl, 0.1% BSA. Radioactivity may be measured by scintillation counting and data are analyzed by a computerized non-linear regression program. Non-specific binding is defined as the amount of radioactivity remaining after incubation of membrane protein in the presence of 1 μM final concentration […]. Protein concentration may be measured by the Bradford method using Bio-Rad Reagent, with bovine serum albumin as a standard.

[2] = target: T2, rat NPFF2 receptor (Rattus norvegicus, UniProt Q9EQD2); assay: Competition binding at cloned rat NPFF2 receptor ([125I]1DMeNPFF displacement)
T2 construct: The full-length NPFF2 was amplified from rat spinal cord cDNA; expressed in transfected cells; host or cells: not given
Protocol: Transfected cells from culture flasks are scraped into 5 ml of 20 mM Tris-HCl, 5 mM EDTA, pH 7.5, and lysed by sonication. The cell lysates are centrifuged at 1000 rpm for 5 min. at 4° C., and the supernatant is centrifuged at 30,000×g for 20 min. at 4° C. […] Optimal membrane suspension dilutions, defined as the protein concentration required to bind less than 10% of the added radioligand, […], unlabeled compounds, and binding buffer to a final volume of 250 μl. In equilibrium saturation binding assays membrane preparations are incubated in the presence of increasing concentrations of [^3H]-labeled compound.
as §1

[3] = target: T1, rat NPFF1 receptor; assay: Functional assay (agonist potency, intrinsic activity) at cloned rat NPFF1 receptor; assay type: cell-based; conditions: for rNPFF1 IA: Table 7, intrinsic activity; for Functional Activity rNPFF1 I.A. %: percent of maximum response elicited by neuropeptide FF; for classification as agonist or antagonist at the NPFF1 receptor: agonist: IA>15%, antagonist: Ki≦1.2 mM and IA≦15% at the rat cloned NPFF receptors
[4] = target: T2, rat NPFF2 receptor; assay: Functional assay (agonist potency, intrinsic activity) at cloned rat NPFF2 receptor; assay type: cell-based; conditions: for rNPFF2 IA: Table 7, intrinsic activity; for Functional Activity rNPFF2 I.A. %: percent of maximum response elicited by neuropeptide FF; for classification as agonist or antagonist at the NPFF2 receptor: agonist: IA>15%, antagonist: Ki≦1.2 mM and IA≦15% at the rat cloned NPFF receptors
[5] = target: T3, norepinephrine (NE) transporter (Rattus norvegicus, UniProt Q63380); assay: Binding at native norepinephrine transporter (NE uptake); conditions: Table 8
T3 construct: evaluated at native, tissue-derived transporters; from tissue
Protocol: (§2) Transporters: The binding properties of compounds were evaluated at native, tissue-derived transporters, namely serotonin (5HT) transporter and norepinephrine (NE) transporter, according to protocols described in Owens (1997), the disclosure of which is hereby incorporated by reference in its entirety into this application.
(§3) The binding affinity (Ki) of these compounds were tested according to the protocols described herein at the following receptors; human α1A, α1B, α1D, α2A, α2B, and α2C adrenergic receptors; human Y1, Y2, Y4, and Y5 receptors; and N-Methyl-D-aspartic acid (NMDA) receptor channels. The binding interactions of these compounds were additionally tested at the norepinephrine (NE) transporter (NE uptake) and serotonin (5-hydroxytryptamine (5HT)) transporter (5HT uptake) according to protocols described herein

[6] = target: T4, serotonin (5HT) transporter (Rattus norvegicus, UniProt P31652); assay: Binding at native serotonin transporter (5HT uptake); conditions: Table 8
T4 construct: evaluated at native, tissue-derived transporters; from tissue
Protocol: as §2, §3

[7] = Table 3, recombinant rat NPFF1, read-out: rNPFF1 Ki
[8] = Table 3, recombinant rat NPFF2, read-out: rNPFF2 Ki
[9] = Table 7, agonist potency, read-out: rNPFF1 EC50
[10] = Table 7, agonist potency, read-out: rNPFF2 EC50
[11] = Table 4, read-out: Ki Values rNPFF1
[12] = Table 4, read-out: Ki Values rNPFF2
[13] = Table 4, read-out: Functional Activity rNPFF1 EC50
[14] = Table 4, read-out: Functional Activity rNPFF2 EC50
[15] = Table 5, D-Arg- or D-Phe-containing compounds, read-out: Ki Values rNPFF1
[16] = Table 5, D-Arg- or D-Phe-containing compounds, read-out: Ki Values rNPFF2
[17] = Table 5, read-out: Functional Activity rNPFF1 EC50
[18] = Table 5, read-out: Functional Activity rNPFF2 EC50

T2 sequence (Q9EQD2 whole entry): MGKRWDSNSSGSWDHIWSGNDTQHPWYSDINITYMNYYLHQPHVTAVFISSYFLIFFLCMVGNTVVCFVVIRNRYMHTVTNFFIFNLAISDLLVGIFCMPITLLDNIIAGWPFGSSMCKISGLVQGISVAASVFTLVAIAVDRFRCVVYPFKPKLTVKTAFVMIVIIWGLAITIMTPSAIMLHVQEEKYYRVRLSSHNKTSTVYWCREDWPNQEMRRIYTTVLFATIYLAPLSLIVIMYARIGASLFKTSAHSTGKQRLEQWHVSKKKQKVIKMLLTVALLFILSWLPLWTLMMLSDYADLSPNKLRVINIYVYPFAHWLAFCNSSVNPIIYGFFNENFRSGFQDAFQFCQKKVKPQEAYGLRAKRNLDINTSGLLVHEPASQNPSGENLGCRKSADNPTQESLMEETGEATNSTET
T1 sequence (Q9EP86 whole entry): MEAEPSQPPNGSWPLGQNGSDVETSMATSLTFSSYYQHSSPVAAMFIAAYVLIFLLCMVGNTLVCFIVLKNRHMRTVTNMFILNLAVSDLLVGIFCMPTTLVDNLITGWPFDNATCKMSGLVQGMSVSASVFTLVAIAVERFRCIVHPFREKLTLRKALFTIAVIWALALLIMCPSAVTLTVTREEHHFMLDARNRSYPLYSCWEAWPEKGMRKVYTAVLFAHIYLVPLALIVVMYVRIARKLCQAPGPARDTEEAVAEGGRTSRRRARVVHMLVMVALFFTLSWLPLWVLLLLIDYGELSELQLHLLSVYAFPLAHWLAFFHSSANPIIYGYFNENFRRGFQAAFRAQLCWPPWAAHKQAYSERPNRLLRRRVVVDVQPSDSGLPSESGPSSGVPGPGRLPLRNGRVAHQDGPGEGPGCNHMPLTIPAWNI
T4 sequence (P31652 whole entry): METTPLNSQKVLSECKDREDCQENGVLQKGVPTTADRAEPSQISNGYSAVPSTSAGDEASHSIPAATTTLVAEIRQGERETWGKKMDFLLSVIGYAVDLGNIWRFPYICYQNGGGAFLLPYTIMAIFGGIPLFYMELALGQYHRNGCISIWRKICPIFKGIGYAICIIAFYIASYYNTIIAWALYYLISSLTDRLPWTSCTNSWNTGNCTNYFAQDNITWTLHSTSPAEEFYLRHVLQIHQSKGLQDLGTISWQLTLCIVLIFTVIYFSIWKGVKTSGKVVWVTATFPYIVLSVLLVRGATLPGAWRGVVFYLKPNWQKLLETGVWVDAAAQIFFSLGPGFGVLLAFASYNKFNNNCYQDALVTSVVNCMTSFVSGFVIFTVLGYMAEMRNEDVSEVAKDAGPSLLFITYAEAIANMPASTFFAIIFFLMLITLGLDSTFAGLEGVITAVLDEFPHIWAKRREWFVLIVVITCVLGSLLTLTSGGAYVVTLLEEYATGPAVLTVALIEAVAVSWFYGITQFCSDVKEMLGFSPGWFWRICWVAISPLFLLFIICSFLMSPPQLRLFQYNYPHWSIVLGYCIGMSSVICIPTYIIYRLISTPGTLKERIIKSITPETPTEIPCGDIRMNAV
T3 sequence (Q63380 1-617): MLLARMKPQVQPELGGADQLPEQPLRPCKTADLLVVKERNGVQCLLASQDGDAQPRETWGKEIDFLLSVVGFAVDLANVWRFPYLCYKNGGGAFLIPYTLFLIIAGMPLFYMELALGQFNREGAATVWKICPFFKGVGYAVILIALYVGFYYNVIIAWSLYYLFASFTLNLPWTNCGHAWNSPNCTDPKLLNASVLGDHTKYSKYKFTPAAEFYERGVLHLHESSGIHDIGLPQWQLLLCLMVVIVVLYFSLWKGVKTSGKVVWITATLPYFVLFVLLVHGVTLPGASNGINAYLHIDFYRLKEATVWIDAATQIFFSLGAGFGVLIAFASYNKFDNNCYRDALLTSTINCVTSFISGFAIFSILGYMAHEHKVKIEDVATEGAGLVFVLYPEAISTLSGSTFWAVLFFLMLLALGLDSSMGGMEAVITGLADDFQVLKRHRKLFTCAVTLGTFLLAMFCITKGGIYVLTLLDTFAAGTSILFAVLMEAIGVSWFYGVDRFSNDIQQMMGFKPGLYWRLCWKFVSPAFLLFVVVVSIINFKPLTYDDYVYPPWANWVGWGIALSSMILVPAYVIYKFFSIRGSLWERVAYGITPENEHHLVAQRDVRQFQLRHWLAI

Molecule	rNPFF1 IA [3]	rNPFF2 IA [4]	pKi [1, 15]	pKi [2, 16]	Functional Activity rNPFF1 I.A. % ([3]; Table 5)	pEC50 [3, 17]	Functional Activity rNPFF2 I.A. % ([4]; Table 5)	pEC50 [4, 18]	further results
Cc1nc(NC(=N)N)nc2ccc(OCCCCCOc3ccccc3)cc12 [Compound 1005A, N-4-methyl-6-[(5-phenoxypentyl)oxy]-2-quinazolinylguanidine]	Inactive	21% NPFF	–	–	–	–	–	–	pKi [1, 7]: 6.50; pKi [2, 8]: 5.67; pEC50 [3, 9]: < 5.00; pEC50 [4, 10]: 5.50
Cc1nc(NC(=N)N)nc2ccc(Cl)cc12 [Compound 1013A, N-(6-chloro-4-methyl-2-quinazolinyl)guanidine]	–	52% NPFF	–	–	–	–	–	–	pKi [5]: 4.39; pKi [6]: 5.69
COc1ccc(Br)cc1S(=O)(=O)N[C@@H](CCCNC(=N)N)C(=O)N[C@@H](Cc1ccccc1)C(N)=O [Compound 1025B]	–	–	–	–	–	–	–	–	pKi [1, 11]: 6.48; pKi [2, 12]: 5.38; Functional Activity rNPFF1 I.A. % ([3]; Table 4): 78%; pEC50 [3, 13]: 6.22; Functional Activity rNPFF2 I.A. % ([4]; Table 4): 33%; pEC50 [4, 14]: < 5.50
CCc1nc(NC(=N)N)nc2ccc(C)cc12 [Compound 1027A]	Inactive	31% NPFF	–	–	–	–	–	–	pKi [1, 7]: 6.22; pKi [2, 8]: 5.50; pEC50 [3, 9]: < 5.00; pEC50 [4, 10]: < 5.00
N=C(N)NCCC[C@H](NS(=O)(=O)c1ccc2ccccc2c1)C(=O)N[C@H](Cc1ccccc1)C(N)=O [Compound 1029B]	–	–	6.40	5.57	30%	6.32	86%	< 5.50	–
COc1ccc(C)cc1S(=O)(=O)N[C@@H](CCCNC(=N)N)C(=O)N[C@@H](Cc1ccccc1)C(N)=O [Compound 2003B]	–	–	–	–	–	–	–	–	pKi [2, 12]: < 5.00; Functional Activity rNPFF1 I.A. % ([3]; Table 4): 102%; classification as agonist or antagonist at the NPFF1 receptor [3]: agonists; Functional Activity rNPFF2 I.A. % ([4]; Table 4): 52%; pEC50 [4, 14]: < 5.50; classification as agonist or antagonist at the NPFF2 receptor [4]: agonists
CCCCc1ccc2nc(NC(=N)N)nc(C)c2c1 [Compound 2004A, N-(6-butyl-4-methyl-2-quinazolinyl)guanidine]	40% NPFF	101% NPFF	–	–	–	–	–	–	–
CCCCCCc1ccc2nc(NC(=N)N)nc(C)c2c1 [Compound 2005A, N-(6-hexyl-4-methyl-2-quinazolinyl)guanidine]	56% NPFF	81% NPFF	–	–	–	–	–	–	–
CCCCCCCc1ccc2nc(NC(=N)N)nc(C)c2c1 [Compound 2006A, N-(6-heptyl-4-methyl-2-quinazolinyl)guanidine]	38% NPFF	47% NPFF	–	–	–	–	–	–	–
Cc1ccc2c(C)nc(NC(=N)N)nc2c1 [Compound 3001A, N-(4,7-dimethyl-2-quinazolinyl)guanidine]	–	–	–	–	–	–	–	–	classification as agonist or antagonist at the NPFF1 receptor [3]: antagonists; classification as agonist or antagonist at the NPFF2 receptor [4]: antagonists; pKi [5]: 4.67; pKi [6]: 4.65
N=C(N)NCCC[C@@H](NS(=O)(=O)c1cccc2ccccc12)C(=O)N[C@@H](Cc1ccccc1)C(N)=O [Compound 3001B]	–	–	7.34	5.54	1%	< 5.00	79%	6.42	classification as agonist or antagonist at the NPFF1 receptor [3]: antagonist; classification as agonist or antagonist at the NPFF2 receptor [4]: agonist
CCCCc1ccc2nc(NC(=N)N)cc(C)c2c1 [Compound 5001A, N-(6-butyl-4-methyl-2-quinolinyl)guanidine]	28% NPFF	82% NPFF	–	–	–	–	–	–	–
N1-[(1R)-2-Amino-1-benzyl-2-oxoethyl]-(2S)-{[amino(imino)methyl]amino}-2-[2, 6-difluorophenyl)sulfonyl]amino]pentanamide [Compound 1032B]	–	–	5.89	< 5.00	47%	6.19	61%	5.56	–
N1-[(1R)-2-Amino-1-benzyl-2-oxoethyl]-(2S)-{[amino(imino)methyl]amino}-2-[2-bromophenyl) sulfonyl]amino}pentanamide [Compound 1031B]	–	–	5.59	5.22	32%	6.07	24%	5.80	–
N1-[(1S)-2-Amino-1-benzyl-2-oxoethyl]-(2R)-{[amino(imino)methyl]amino}-2-2-bromophenyl) sulfonyl]amino}pentanamide [Compound 1030B]	–	–	6.60	5.21	35%	6.18	71%	5.78	–
N1-[(1S)-2-Amino-1-benzyl-2-oxoethyl]-(2S)-{[amino(imino)methyl]amino}-2-[pentafluorophenyl)sulfonyl]amino}pentanamide [Compound 1024B]	–	–	–	–	–	–	–	–	pKi [1, 11]: 6.31; pKi [2, 12]: 5.27; Functional Activity rNPFF1 I.A. % ([3]; Table 4): 69%; pEC50 [3, 13]: 6.14; Functional Activity rNPFF2 I.A. % ([4]; Table 4): 43%; pEC50 [4, 14]: < 5.50
